Measured values as given in US4619938A, “Fatty acid derivatives of aminoalkyl nicotinic acid esters and platelet aggregation inhibitors” (Terumo Kabushiki Kaisha, priority 1984, dated 1986).
Where two headings read alike, the source gives them in different places.

Experiments:
[1] = tested on: platelet aggregation caused by arachidonic acid (platelet-rich plasma); test: Platelet aggregation-inhibitory action, arachidonic acid (100 μM) induced, Born's turbidometric method; assay type: cell-based, rabbit; settings: Oryctolagus cuniculus, 0.05 h, read-out: 50% inhibitory concentration, Arachidonic acid
Procedure: (§1) Blood was drawn from the carotid artery of a rabbit using a syringe containing 3.8% solution of sodium citrate in an amount of […] per volume of the solution. The blood was centrifuged to obtain platelet-rich plasma (PRP: 5×10^5 platelets/μl).
(§2) In a cuvette was placed 250 μl of the PRP, which is warmed in a constant-temperature bath at 37° C. for 2 min. To the warmed cuvette was added 20 μl of a solution of an alkanolamine derivative to be tested (a […] ethanol solution which had been diluted with Trisbuffered isotonic saline solution). The mixture was then incubated for 3 min., followed by addition of a aggregation inducer, an arachidonic acid solution or a collagen solution. Measurement of the platelet aggregation was made by Born's turbidometric method (e.g., described in J. Physiol., Vol. 168, P. 178, 1968). The 50% inhibitory concentration for the platelet aggregation caused by arachidonic acid (100 μM) or collagen (20 μg/ml) is given in Table 1 with reference to Aspirin for comparison.
(§3) The 50% inhibitory concentration as shown in the table means the concentration of an alkanolamine derivative required for inhibiting aggregation ability of the platelets to 50% when the aggregation ability of the platelets in the absence of the alkanolamine derivative of the invention is taken as 100%.

[2] = tested on: platelet aggregation caused by collagen (platelet-rich plasma); test: Platelet aggregation-inhibitory action, collagen (20 μg/ml) induced, Born's turbidometric method; assay type: cell-based, rabbit; settings: Oryctolagus cuniculus, 0.05 h, read-out: 50% inhibitory concentration, Collagen
Procedure: as §1, §2, §3

[3] = rabbit PRP, 37° C., 3 min. incubation, arachidonic acid 100 μM
[4] = rabbit PRP, 37° C., 3 min. incubation, collagen 20 μg/ml

| Compound | IC50 [1] [µM] | IC50 [2] [µM] | IC50 [1, 3] [µM] | IC50 [2, 4] [µM] |
| --- | --- | --- | --- | --- |
| CC(=O)Oc1ccccc1C(=O)O [Aspirin, reference compound] | 14 | 13.6 |  |  |
| CC/C=C\C/C=C\C/C=C\C/C=C\C/C=C\CCCC(=O)NCCO [Example 1, N-5,8,11,14,17-eicosapentaenoyl-2-aminoethanol] |  |  | 22 | 98 |
| CC/C=C\C/C=C\C/C=C\C/C=C\C/C=C\CCCC(=O)OCCNC(=O)c1cccnc1 [Example 2, N-nicotinoyl-2-aminoethyl 5,8,11,14,17-eicosapentaenoate] |  |  | 11 | 93 |
| CC/C=C\C/C=C\C/C=C\CCCCCCCC(=O)OCCNC(=O)c1cccnc1 [Example 3, N-nicotinoyl-2-aminoethyl 9,12,15-octadecatrienoate] |  |  | 49 | 140 |
| CCCCC/C=C\C/C=C\C/C=C\CCCCC(=O)OCCNC(=O)c1cccnc1 [Example 4, N-nicotinoyl-2-aminoethyl 6,9,12-octadecatrienoate] |  |  | 36 | 190 |
| CC/C=C\C/C=C\C/C=C\C/C=C\C/C=C\CCCC(=O)NCCOC(=O)c1cccnc1 [Example 5, N-5,8,11,14,17-eicosapentaenoyl-2-aminoethyl nicotinate] |  |  | 8.8 | 90 |
| CC/C=C\C/C=C\C/C=C\C/C=C\C/C=C\CCCC(=O)N(CC)CCO [Example 6, N-ethyl-N-5,8,11,14,17-eicosapentaenoyl-2-aminoethanol] |  |  | 3.57 | 273 |
| CC/C=C\C/C=C\C/C=C\C/C=C\C/C=C\CCCC(=O)N(CCO)CCCC [Example 7, N-butyl-N-5,8,11,14,17-eicosapentaenoyl-2-aminoethanol] |  |  | 3.55 | 187 |
| CC/C=C\C/C=C\C/C=C\C/C=C\C/C=C\CCCC(=O)N(C)CCOC(=O)c1cccnc1 [Example 8, N-methyl-N-5,8,11, 14,17-eicosapentaenoyl-2-aminoethylnicotinate] |  |  | 6.62 | 111 |
| CC/C=C\C/C=C\C/C=C\CCCCCCCC(=O)N(C)CCOC(=O)c1cccnc1 [Example 9, N-methyl-N-9,12,15-octadecatrienoyl-2-aminoethylnicotinate] |  |  | 8.24 | 273 |
| CC/C=C\C/C=C\C/C=C\C/C=C\C/C=C\CCCC(=O)N(CC)CCOC(=O)c1cccnc1 [Example 10, N-ethyl-N-5,8,11,14,17-eicosapentaenoyl-2-aminoethylnicotinate] |  |  | 4.99 | 91.7 |
| CC/C=C\C/C=C\C/C=C\C/C=C\C/C=C\CCCC(=O)N(CCCC)CCOC(=O)c1cccnc1 [Example 11, N-butyl-N-5,8,11,14,17-eicosapentaenoyl-2-aminoethylnicotinate] |  |  | 6.03 | 197 |
| CC/C=C\C/C=C\C/C=C\C/C=C\C/C=C\CCCC(=O)NCCCOC(=O)c1cccnc1 [Example 12, N-5,8,11,14,17-eicosapentaenoyl-3-aminopropylnicotinate] |  |  | 3.44 | 55.3 |
| CC/C=C\C/C=C\C/C=C\C/C=C\C/C=C\CCCC(=O)OCCN(CC)C(=O)c1cccnc1 [Example 13, (N-ethyl-N-nicotinoyl-2-aminoethyl)-5,8,11,14,17-eicosapentaenoate] |  |  | 255 | 401 |
| CC/C=C\C/C=C\C/C=C\C/C=C\C/C=C\CCCC(=O)N(C)CCOCc1cccnc1 [Example 14, [N-methyl-N-(5,8,11,14,17-eicosapentaenoyl)-2-aminoethyl]-β-picolylether] |  |  | 5.68 | 50.1 |
| CC/C=C\C/C=C\C/C=C\C/C=C\C/C=C\CCCC(=O)N(CCCC)CCOCc1cccnc1 [Example 15] |  |  | 7.07 | 123 |
| CC/C=C\C/C=C\C/C=C\C/C=C\C/C=C\CCCC(=O)NCCOCc1cccnc1 [Example 16, (N-5,8,11,14,17-eicosapentaenoyl)-2-aminoethyl β-picolyl ether] |  |  | 5.68 | 50.1 |
| CC/C=C\C/C=C\C/C=C\CCCCCCCC(=O)NCCCOCc1cccnc1 [Example 17, (N-9,12,15-octadecatrienoyl)-3-aminopropyl β-picolylether] |  |  | 7.07 | 123 |
